According to publication PMC5218480 (PLoS ONE, 2017):

System: MV-4-11 cells
Assay: Gene expression microarray analysis (Affymetrix PrimeView) and GSEA
Assay type: cell-based, human
Design: RFU PODN (11730768_x_at) / Fold change /veh PODN (11730768_x_at) / RFU LINC00158 (11744669_a_at) / Fold change /veh LINC00158 (11744669_a_at) / RFU DUSP10 (11751237_a_at) / Fold change /veh DUSP10 (11751237_a_at) / RFU ID3 (11757404_x_at) / Fold change /veh ID3 (11757404_x_at) / RFU PLEKHG5 (11737974_s_at) / Fold change /veh PLEKHG5 (11737974_s_at) / RFU LRRC4B (11730491_at) / Fold change /veh LRRC4B (11730491_at) / RFU GIMAP4 (11747438_a_at) / Fold change /veh GIMAP4 (11747438_a_at) / RFU KRT8 (11758183_x_at) / Fold change /veh KRT8 (11758183_x_at) / RFU CNN1 (11734310_a_at) / Fold change /veh CNN1 (11734310_a_at) / RFU VPS37D (11726825_at) / Fold change /veh VPS37D (11726825_at) / RFU C10orf10 (11716522_x_at) / Fold change /veh C10orf10 (11716522_x_at) / RFU KIR2DL2 /// KIR2DL4 /// KIR2DL5A /// KIR2DL5B /// KIR2DS1 /// KIR2DS2 /// KIR2DS3 /// KIR2DS4 /// KIR3DL3 /// KIR3DL3 /// KIR3DS1 (11738374_at) / Fold change /veh KIR2DL2 /// KIR2DL4 /// KIR2DL5A /// KIR2DL5B /// KIR2DS1 /// KIR2DS2 /// KIR2DS3 /// KIR2DS4 /// KIR3DL3 /// KIR3DL3 /// KIR3DS1 (11738374_at) / RFU C1QL1 (11718748_at) / Fold change /veh C1QL1 (11718748_at) / RFU TMPRSS4 (11747572_a_at) / Fold change /veh TMPRSS4 (11747572_a_at) / RFU HAMP (11756126_x_at) / Fold change /veh HAMP (11756126_x_at) / RFU RNFT2 (11725882_a_at) / Fold change /veh RNFT2 (11725882_a_at) / RFU NR4A2 (11747474_a_at) / Fold change /veh NR4A2 (11747474_a_at) / RFU ABCC12 (11746883_a_at) / Fold change /veh ABCC12 (11746883_a_at) / RFU TMEM136 (11760407_x_at) / Fold change /veh TMEM136 (11760407_x_at) / RFU CLDN22 /// WWC2 (11732394_at) / Fold change /veh CLDN22 /// WWC2 (11732394_at) / RFU HLA-DPB1 (11760878_x_at) / Fold change /veh HLA-DPB1 (11760878_x_at) / RFU SPINT1 (11716480_a_at) / Fold change /veh SPINT1 (11716480_a_at) / RFU GAP43 (11754022_s_at) / Fold change /veh GAP43 (11754022_s_at) / RFU A4GNT (11735810_at) / Fold change /veh A4GNT (11735810_at) / RFU PRB3 (11715151_x_at) / Fold change /veh PRB3 (11715151_x_at) / RFU TUBB4B (11761932_at) / Fold change /veh TUBB4B (11761932_at) / RFU CAPN14 (11732068_a_at) / Fold change /veh CAPN14 (11732068_a_at) / RFU TMCC2 (11721928_a_at) / Fold change /veh TMCC2 (11721928_a_at) / RFU IRGQ (11745062_a_at) / Fold change /veh IRGQ (11745062_a_at) / RFU FAM174B (11720279_a_at) / Fold change /veh FAM174B (11720279_a_at) / RFU TMPRSS4 (11748680_a_at) / Fold change /veh TMPRSS4 (11748680_a_at) / RFU FAM212B (11763350_a_at) / Fold change /veh FAM212B (11763350_a_at) / RFU PLEKHG5 (11743358_a_at) / Fold change /veh PLEKHG5 (11743358_a_at) / RFU ZSCAN30 (11745921_a_at) / Fold change /veh ZSCAN30 (11745921_a_at) / RFU CMKLR1 (11741424_a_at) / Fold change /veh CMKLR1 (11741424_a_at) / RFU LOC101060620 /// MAPK8IP1 (11723275_at) / Fold change /veh LOC101060620 /// MAPK8IP1 (11723275_at) / RFU SPTSSB (11747773_x_at) / Fold change /veh SPTSSB (11747773_x_at) / RFU PRSS12 (11739890_at) / Fold change /veh PRSS12 (11739890_at) / RFU BIN1 (11741810_x_at) / Fold change /veh BIN1 (11741810_x_at) / RFU WNT11 (11732464_a_at) / Fold change /veh WNT11 (11732464_a_at) / RFU C10orf10 (11716521_a_at) / Fold change /veh C10orf10 (11716521_a_at) / RFU C5orf56 (11738089_at) / Fold change /veh C5orf56 (11738089_at) / RFU CYB561 (11721691_x_at) / Fold change /veh CYB561 (11721691_x_at) / RFU ANKRD19P (11752326_a_at) / Fold change /veh ANKRD19P (11752326_a_at) / RFU OR2T12 /// OR2T33 /// OR2T8 (11738714_s_at) / Fold change /veh OR2T12 /// OR2T33 /// OR2T8 (11738714_s_at) / RFU VCAN (11748164_a_at) / Fold change /veh VCAN (11748164_a_at) / RFU JSRP1 (11732532_at) / Fold change /veh JSRP1 (11732532_at) / RFU KRTAP10-11 (11738290_x_at) / Fold change /veh KRTAP10-11 (11738290_x_at) / RFU MYO3A (11730013_a_at) / Fold change /veh MYO3A (11730013_a_at) / RFU EBF3 (11725865_a_at) / Fold change /veh EBF3 (11725865_a_at) / RFU CAMK2N1 (11719241_x_at) / Fold change /veh CAMK2N1 (11719241_x_at) / RFU C5orf56 (11738088_a_at) / Fold change /veh C5orf56 (11738088_a_at) / RFU OLFML3 (11715873_a_at) / Fold change /veh OLFML3 (11715873_a_at) / RFU LOC100653217 /// NTM (11731650_a_at) / Fold change /veh LOC100653217 /// NTM (11731650_a_at) / RFU MAPK11 (11762145_a_at) / Fold change /veh MAPK11 (11762145_a_at) / RFU FIZ1 (11724087_x_at) / Fold change /veh FIZ1 (11724087_x_at) / RFU OASL (11726364_x_at) / Fold change /veh OASL (11726364_x_at) / RFU SOX15 (11748057_x_at) / Fold change /veh SOX15 (11748057_x_at) / RFU CD79A (11719716_a_at) / Fold change /veh CD79A (11719716_a_at) / RFU HIST1H1D (11736915_at) / Fold change /veh HIST1H1D (11736915_at) / RFU CASKIN2 (11723855_a_at) / Fold change /veh CASKIN2 (11723855_a_at) / RFU LOC730098 (11760151_x_at) / Fold change /veh LOC730098 (11760151_x_at) / RFU OR4N2 (11742367_at) / Fold change /veh OR4N2 (11742367_at) / RFU PRRT2 (11749266_a_at) / Fold change /veh PRRT2 (11749266_a_at) / RFU SNX32 (11753110_a_at) / Fold change /veh SNX32 (11753110_a_at) / RFU CDHR5 (11726645_a_at) / Fold change /veh CDHR5 (11726645_a_at) / RFU RCAN1 (11760418_a_at) / Fold change /veh RCAN1 (11760418_a_at) / RFU FAM167A (11723789_a_at) / Fold change /veh FAM167A (11723789_a_at) / RFU FAM26E (11764081_at) / Fold change /veh FAM26E (11764081_at) / RFU ISYNA1 (11749810_s_at) / Fold change /veh ISYNA1 (11749810_s_at) / RFU ACY1 (11761880_at) / Fold change /veh ACY1 (11761880_at) / RFU 11764098_at / Fold change /veh 11764098_at / RFU SAMD14 (11745864_x_at) / Fold change /veh SAMD14 (11745864_x_at) / RFU NPB (11741838_a_at) / Fold change /veh NPB (11741838_a_at) / RFU TMPRSS6 (11731388_a_at) / Fold change /veh TMPRSS6 (11731388_a_at) / RFU KRTAP10-2 (11738614_at) / Fold change /veh KRTAP10-2 (11738614_at) / RFU ARHGAP8 /// PRR5-ARHGAP8 (11727945_x_at) / Fold change /veh ARHGAP8 /// PRR5-ARHGAP8 (11727945_x_at) / RFU KRTAP5-7 /// NADSYN1 (11734609_at) / Fold change /veh KRTAP5-7 /// NADSYN1 (11734609_at) / RFU RASL12 (11751679_a_at) / Fold change /veh RASL12 (11751679_a_at) / RFU CDKN2B (11736163_a_at) / Fold change /veh CDKN2B (11736163_a_at) / RFU PRF1 (11729649_at) / Fold change /veh PRF1 (11729649_at) / RFU, ZNF638 /// ZNF638-IT1 / Fold change vs veh, ZNF638 /// ZNF638-IT1 / RFU, PANK3 / Fold change vs veh, PANK3 / RFU, SH3YL1 / Fold change vs veh, SH3YL1 / RFU, ZEB2 / Fold change vs veh, ZEB2 / RFU, NRIP1 / Fold change vs veh, NRIP1 / RFU, PTTG1IP / Fold change vs veh, PTTG1IP / RFU, CAPN2 / Fold change vs veh, CAPN2 / RFU, MED14 / Fold change vs veh, MED14 / RFU, SNORA58 / Fold change vs veh, SNORA58 / RFU, C1orf63 / Fold change vs veh, C1orf63 / RFU, LRRFIP1 / Fold change vs veh, LRRFIP1 / RFU, NDUFAF7 / Fold change vs veh, NDUFAF7 / RFU, SLC12A2 / Fold change vs veh, SLC12A2 / RFU, IBTK / Fold change vs veh, IBTK / RFU, ESF1 / Fold change vs veh, ESF1 / Fold change vs veh, TMEM50B / RFU, TAOK1 / Fold change vs veh, TAOK1 / RFU, ACBD3 / Fold change vs veh, ACBD3 / RFU, TMA16 / Fold change vs veh, TMA16 / RFU, RWDD3 / Fold change vs veh, RWDD3 / RFU, BCAT1 / Fold change vs veh, BCAT1 / RFU, EDEM3 / Fold change vs veh, EDEM3 / RFU, TMEM33 / Fold change vs veh, TMEM33 / RFU, WDR75 / Fold change vs veh, WDR75 / RFU, AHCTF1 / Fold change vs veh, AHCTF1 / RFU, TFRC / Fold change vs veh, TFRC / RFU, ZDHHC17 / Fold change vs veh, ZDHHC17 / RFU, NOM1 / Fold change vs veh, NOM1 / RFU, ARL8B / Fold change vs veh, ARL8B / RFU, ZBTB11 / Fold change vs veh, ZBTB11 / RFU, TAMM41 / Fold change vs veh, TAMM41 / RFU, KIAA1704 /// LOC100996395 / Fold change vs veh, KIAA1704 /// LOC100996395 / RFU, ING1 / Fold change vs veh, ING1 / RFU, TRMT61B / Fold change vs veh, TRMT61B / RFU, FUBP3 / Fold change vs veh, FUBP3 / RFU, TP53 / Fold change vs veh, TP53 / RFU, TNKS2 / Fold change vs veh, TNKS2 / RFU, ZFP14 / Fold change vs veh, ZFP14 / RFU, ACTR2 / Fold change vs veh, ACTR2 / RFU, PPP3R1 / Fold change vs veh, PPP3R1 / RFU, PIK3R1 / Fold change vs veh, PIK3R1 / RFU, HNRNPA1 / Fold change vs veh, HNRNPA1 / RFU, RNF170 / Fold change vs veh, RNF170 / RFU, ZNF28 / Fold change vs veh, ZNF28 / RFU, RNGTT / Fold change vs veh, RNGTT / RFU, OGT / Fold change vs veh, OGT / RFU, BRD1 / Fold change vs veh, BRD1 / RFU, MARS / Fold change vs veh, MARS / RFU, ZNF655 / Fold change vs veh, ZNF655 / RFU, FAHD1 / Fold change vs veh, FAHD1 / RFU, BDP1 / Fold change vs veh, BDP1 / RFU, LRRCC1 / Fold change vs veh, LRRCC1 / RFU, ARID1A / Fold change vs veh, ARID1A / RFU, ZNF146 / Fold change vs veh, ZNF146 / RFU, ZNF330 / Fold change vs veh, ZNF330 / RFU, GPN3 / Fold change vs veh, GPN3 / RFU, C9orf123 / Fold change vs veh, C9orf123 / RFU, N4BP2L2 / Fold change vs veh, N4BP2L2 / RFU, ARFIP1 / Fold change vs veh, ARFIP1 / RFU, FAM179B / Fold change vs veh, FAM179B / RFU, BCL10 / Fold change vs veh, BCL10 / RFU, UHRF1BP1L / Fold change vs veh, UHRF1BP1L / RFU, BET1 / Fold change vs veh, BET1 / RFU, CNOT2 / Fold change vs veh, CNOT2 / RFU, ZNF268 / Fold change vs veh, ZNF268 / Fold change vs veh, ZNF507 / RFU, DGCR2 / Fold change vs veh, DGCR2 / RFU, WDSUB1 / Fold change vs veh, WDSUB1 / Fold change vs veh, HSP90B1 /// MIR3652 / RFU, ADSS / Fold change vs veh, ADSS / RFU, GK / Fold change vs veh, GK / RFU, ZNF148 / Fold change vs veh, ZNF148 / RFU, TAF9 / Fold change vs veh, TAF9 / RFU, SLC1A5 / Fold change vs veh, SLC1A5 / RFU, SLMO2 / Fold change vs veh, SLMO2 / RFU, ABCC4 / Fold change vs veh, ABCC4 / RFU, LOC101060439 /// RAP1B / Fold change vs veh, LOC101060439 /// RAP1B / RFU, RFX7 / Fold change vs veh, RFX7 / RFU, GTPBP10 / Fold change vs veh, GTPBP10 / RFU, CNEP1R1 / Fold change vs veh, CNEP1R1 / RFU, BIVM-ERCC5 /// ERCC5 / Fold change vs veh, BIVM-ERCC5 /// ERCC5 / RFU, ILF3 / Fold change vs veh, ILF3 / RFU 11762660_at / Fold change /veh 11762660_at / RFU VCAN (11757783_s_at) / Fold change /veh VCAN (11757783_s_at) / RFU DDX43 (11728927_at) / Fold change /veh DDX43 (11728927_at) / RFU KRT8 (11758188_x_at) / Fold change /veh KRT8 (11758188_x_at) / RFU NKD1 (11759106_at) / Fold change /veh NKD1 (11759106_at) / RFU SRD5A1 (11742802_a_at) / Fold change /veh SRD5A1 (11742802_a_at) / RFU TPSAB1 /// TPSB2 (11721975_s_at) / Fold change /veh TPSAB1 /// TPSB2 (11721975_s_at) / RFU GSTM3 (11746129_a_at) / Fold change /veh GSTM3 (11746129_a_at) / RFU IL23R (11737362_x_at) / Fold change /veh IL23R (11737362_x_at) / RFU TMEM51 (11727254_a_at) / Fold change /veh TMEM51 (11727254_a_at) / RFU PIWIL2 (11732686_x_at) / Fold change /veh PIWIL2 (11732686_x_at) / RFU ORM1 (11744905_x_at) / Fold change /veh ORM1 (11744905_x_at) / RFU CCDC152 (11743942_at) / Fold change /veh CCDC152 (11743942_at) / RFU ECM1 (11717891_a_at) / Fold change /veh ECM1 (11717891_a_at) / RFU IL23R (11748794_a_at) / Fold change /veh IL23R (11748794_a_at) / RFU TNFAIP8L3 (11732012_x_at) / Fold change /veh TNFAIP8L3 (11732012_x_at) / RFU MBOAT4 (11741988_at) / Fold change /veh MBOAT4 (11741988_at) / RFU 11764193_at / Fold change /veh 11764193_at / RFU TMEM53 (11763286_at) / Fold change /veh TMEM53 (11763286_at) / RFU MAGEB2 (11727129_at) / Fold change /veh MAGEB2 (11727129_at) / RFU TMEM200A (11744735_a_at) / Fold change /veh TMEM200A (11744735_a_at) / RFU CCDC152 (11751479_a_at) / Fold change /veh CCDC152 (11751479_a_at) / RFU FAM211A (11726209_a_at) / Fold change /veh FAM211A (11726209_a_at) / RFU RGS16 (11746705_a_at) / Fold change /veh RGS16 (11746705_a_at) / RFU VCAN (11755009_s_at) / Fold change /veh VCAN (11755009_s_at) / RFU RHOB (11743442_s_at) / Fold change /veh RHOB (11743442_s_at) / RFU RGS16 (11720943_a_at) / Fold change /veh RGS16 (11720943_a_at) / RFU RGS16 (11720944_at) / Fold change /veh RGS16 (11720944_at) / RFU, VPS4B / Fold change vs veh, VPS4B / RFU, CREB1 / Fold change vs veh, CREB1 / RFU, DNAJC13 / Fold change vs veh, DNAJC13 / RFU, GNAQ / Fold change vs veh, GNAQ / RFU, CDK5R1 / Fold change vs veh, CDK5R1 / RFU, ZRANB3 / Fold change vs veh, ZRANB3 / RFU, CUL4A / Fold change vs veh, CUL4A / RFU, CCNY / Fold change vs veh, CCNY / RFU, UFL1 / Fold change vs veh, UFL1 / RFU, COG3 / Fold change vs veh, COG3 / RFU, DIAPH2 / Fold change vs veh, DIAPH2 / RFU, SKA2 / Fold change vs veh, SKA2 / RFU, AFF3 / Fold change vs veh, AFF3 / RFU, LMF1 / Fold change vs veh, LMF1 / RFU, IPO11 / Fold change vs veh, IPO11 / RFU, DFFB / Fold change vs veh, DFFB / RFU, FOXP1 / Fold change vs veh, FOXP1 / RFU, CARD8 / Fold change vs veh, CARD8 / RFU, STRN3 / Fold change vs veh, STRN3 / RFU, ADK / Fold change vs veh, ADK / RFU, RASSF2 / Fold change vs veh, RASSF2 / RFU, WIPF1 / Fold change vs veh, WIPF1 / RFU, LARP1B / Fold change vs veh, LARP1B / RFU, RASA1 / Fold change vs veh, RASA1 / RFU, RB1 / Fold change vs veh, RB1 / RFU, PPFIA1 / Fold change vs veh, PPFIA1 / RFU, MAT2A / Fold change vs veh, MAT2A / RFU, CCT5 / Fold change vs veh, CCT5 / RFU, WDR92 / Fold change vs veh, WDR92 / RFU, CUX1 / Fold change vs veh, CUX1 / RFU, TTC7A / Fold change vs veh, TTC7A / RFU, TMEM135 / Fold change vs veh, TMEM135 / RFU, DEPTOR / Fold change vs veh, DEPTOR / RFU, CPM / Fold change vs veh, CPM / RFU, DNAJB6 / Fold change vs veh, DNAJB6 / RFU, CACNA2D3 / Fold change vs veh, CACNA2D3 / RFU, DTX4 / Fold change vs veh, DTX4 / RFU, TFCP2 / Fold change vs veh, TFCP2 / RFU, GMCL1 /// GMCL1P1 / Fold change vs veh, GMCL1 /// GMCL1P1 / RFU, AEBP2 / Fold change vs veh, AEBP2 / RFU, SNHG1 /// SNORD22 /// SNORD25 /// SNORD26 /// SNORD27 /// SNORD28 /// SNORD29 /// SNORD31 / Fold change vs veh, SNHG1 /// SNORD22 /// SNORD25 /// SNORD26 /// SNORD27 /// SNORD28 /// SNORD29 /// SNORD31 / Fold change (Aza/veh), C12orf56 (ProbeSet 11735607_a_at) / Fold change (ACY-1035/veh), C12orf56 (ProbeSet 11735607_a_at) / Fold change (Aza/veh), FGFR1OP (ProbeSet 11751329_s_at) / Fold change (ACY-1035/veh), FGFR1OP (ProbeSet 11751329_s_at) / Fold change (Aza/veh), VPS36 (ProbeSet 11739960_a_at) / Fold change (ACY-1035/veh), VPS36 (ProbeSet 11739960_a_at) / RFU SYPL1 (11715823_x_at) / Fold change /veh SYPL1 (11715823_x_at) / RFU IGFBP7 (11715501_s_at) / Fold change /veh IGFBP7 (11715501_s_at) / RFU REEP3 (11722064_at) / Fold change /veh REEP3 (11722064_at) / RFU IGLL1 (11728026_x_at) / Fold change /veh IGLL1 (11728026_x_at): dose or concentration left out as unconfirmed
Settings: MV-4-11 cells, 48 hours

## Nc1ncn([C@@H]2O[C@H](CO)[C@@H](O)[C@H]2O)c(=O)n1 [azacitidine]
  Fold change /veh VCAN (11748164_a_at): 1.17
